Biological target: T1, human LPA3 receptor (Homo sapiens, UniProt Q9UBY5)
T1 construct: expressed in transfected cells; host or cells: CHO cells (Chinese hamster ovary) with the LPA1 receptor knocked down
T1 sequence (Q9UBY5 1-353): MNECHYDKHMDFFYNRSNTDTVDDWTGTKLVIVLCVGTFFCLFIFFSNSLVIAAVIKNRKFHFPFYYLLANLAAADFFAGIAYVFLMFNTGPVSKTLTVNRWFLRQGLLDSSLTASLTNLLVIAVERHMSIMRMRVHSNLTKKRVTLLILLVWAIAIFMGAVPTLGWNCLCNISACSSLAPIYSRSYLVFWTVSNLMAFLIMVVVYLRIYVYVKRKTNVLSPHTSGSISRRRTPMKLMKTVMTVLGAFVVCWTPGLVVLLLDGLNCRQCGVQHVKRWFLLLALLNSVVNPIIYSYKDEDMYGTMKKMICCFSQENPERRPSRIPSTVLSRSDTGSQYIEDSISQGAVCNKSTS
Assay: LPA3 agonist activity measurement (Method A): intracellular Ca2+ in RH7777 cells stably expressing human LPA3 receptor
Format: cell-based
Settings: RH7777 cells expressing human LPA3, Ca2+ fluorescence
Experimental: (Method A) Using RH7777 cells derived from rat hepatocellular carcinoma as a host, each cell line (Multispan, Inc., Cat No. C1048-6, C1050-6, and C1053-6) stably expressing a human LPA3 receptor was subjected to an experiment. The cells cultured until reaching subconfluence were detached, and suspended in a medium (DMEM containing 10% FBS, 1% penicillin/streptomycin, 30 μg/mL puromycin) so as to be 4×10^5 cells/mL. The cells were seeded in a 96 well optical bottom plate (Asahi Techno Glass, MT4940-010) at 100 μL/well, and cultured under conditions of 5% CO2 and 37° C. for 1 day.
On the day of measurement, the medium was removed, and a medium containing 0.2% FBS was added at 100 μL/well, and cultured for 4 to 6 hours. Thereafter, the medium was removed, and an assay buffer (Hank's Balanced Salt Solution containing 0.02 mol/L HEPES, 2.5 mmol/L probenecid, 0.1% BSA, 5 μmol/L Fluo-4, Quenching Buffer, Pluronic F-127) was added at 100 μL/well, and the cells were incubated with 5% CO2 at 37° C. for about 1 hour. The plate was set in a fluorescent drug screening system (Hamamatsu Photonics K.K.), and after 30 seconds from the start of measurement, 25 μL of a cell-added solution containing only a test substance or dimethyl sulfoxide (hereinafter, it is abbreviated as DMSO.) was added thereto. After 3 minutes, 25 μL of a ligand was further added thereto, and then measurement was performed for 4 minutes. A fluorescence wavelength of 540 nm at an excitation wavelength of 480 nm was measured, and intracellular Ca^2+ concentration was indicated by fluorescence intensity change.
(§1) Agonist action of the test substance was calculated as a ratio increase degree after addition of the test substance when a ratio increase value indicated by cells to which a cell-added solution containing only DMSO was added at the time of ligand addition was set to 100%. Further, EC50 value was calculated as a 50% action concentration using Microsoft Excel, from an activity (%) at concentrations before and after agonist activity exceeds 50%.

SMILES	EC50 [nM]
Cc1ccc(Cn2c3c(c(CNC4CCC4)c2C(=O)O)CCCC3)cc1 [Example 7, 3-[(Cyclobutylamino)methyl]-1-(4-methylbenzyl)-4,5,6,7-tetrahydro-1H-indole-2-carboxylic acid]	100
Cc1ccc(Cn2c(C(=O)O)c(C(C)NC3CCC3)c3ccccc32)cc1 (centres unmarked) [Example 5, 3-[1-(Cyclobutylamino)ethyl]-1-(4-methylbenzyl)-1H-indole-2-carboxylic acid]	100
Cc1ccc(Cn2c(C(=O)O)c(CNC3CCC3)c3ccccc32)cc1 [Example 2, 3-[(Cyclobutylamino)methyl]-1-(4-methylbenzyl)-1H-indole-2-carboxylic acid]	60
Cc1ccc(Cn2c(Br)c(C)c(CNC3CCC3)c2C(=O)O)cc1 [Example 2(34), 5-Bromo-3-[(cyclobutylamino)methyl]-4-methyl-1-(4-methylbenzyl)-1H-pyrrole-2-carboxylic acid]	40
CCn1c(C(=O)O)c(CNC2CCC2)c2ccccc21 [Example 1(4), 3-[(Cyclobutylamino)methyl]-1-ethyl-1H-indole-2-carboxylic acid]	600
C=Cc1c(CNC2CCC2)c(C(=O)O)n(Cc2ccc(C)cc2)c1C [Example 6(7), 3-[(Cyclobutylamino)methyl]-5-methyl-1-(4-methylbenzyl)-4-vinyl-1H-pyrrole-2-carboxylic acid]	1000
Cc1ccc(Cn2c(C)c(-c3cccc(F)c3)c(CNC3CCC3)c2C(=O)O)cc1 [Example 6(2), 3-[(Cyclobutylamino)methyl]-4-(3-fluorophenyl)-5-methyl-1-(4-methylbenzyl)-1H-pyrrole-2-carboxylic acid]	900
Cc1ccc(Cn2c(C(=O)O)c(CNC3CC3)c3ccccc32)cc1 [Example 2(18), 3-[(Cyclopropylamino)methyl]-1-(4-methylbenzyl)-1H-indole-2-carboxylic acid]	1000
O=C(O)c1c(CNC2CCC2)c2ccccc2n1CC1CC1(F)F (centres unmarked) [Example 1(3), 3-[(Cyclobutylamino)methyl]-1-[(2,2-difluorocyclopropyl)methyl]-1H-indole-2-carboxylic acid]	500

Biological target: T1, human LPA3 receptor
Assay: LPA3 agonist activity measurement (Method B): intracellular Ca2+ in LPA1-knockdown CHO cells stably expressing human LPA3 receptor
Format: cell-based
Settings: LPA1-knockdown CHO cells expressing human LPA3, Ca2+ fluorescence
Description: (Method B) A cell line stably expressing a human LPA3 receptor using a cell obtained by knocking down an LPA1 receptor of CHO cells of Chinese hamster ovary as a host was subjected to an experiment. The cryopreserved cells were thawed and suspended in loading buffer (Hank's Balanced Salt Solution containing 0.02 mol/L HEPES, 2.5 mmol/L probenecid, 0.1% BSA, 5 μmol/L Fluo-4, Quenching Buffer, Pluronic F-127) so as to be 1×10^5 cells/mL. The plate was allowed to stand under conditions of 5% CO2 and 37° C. for 1 hour, then the buffer was replaced with an assay buffer (Hank's Balanced Salt Solution containing 0.02 mol/L HEPES, 2.5 mmol/L probenecid, 0.1% BSA), and the cells were seeded in a 384 well optical bottom plate (384 Well microplate, low volume, Corning, 3540) at 10 μL/well.
A plate was set in a fluorescent drug screening system (Hamamatsu Photonics K.K.), and after 15 seconds from the start of the measurement, 10 μL of a positive control, the test substance or the cell-added solution containing only DMSO was added thereto, and the measurement was performed for 1 minute. A fluorescence wavelength of 540 nm at an excitation wavelength of 480 nm was measured, and intracellular […] concentration was indicated by fluorescence intensity change.
as §1, with “the positive control or the” for “cells to which a”, “containing” for “containing only DMSO”, “added” for “added at the time of ligand addition”

SMILES	EC50 [nM]
O=C(O)c1c(CNC2CCC2)c2ccccc2n1Cc1cccc(C2CC2)c1 [Example 2(41), 3-[(Cyclobutylamino)methyl]-1-(3-cyclopropylbenzyl)-1H-indole-2-carboxylic acid]	40
Cc1ccc(Cn2c(C(=O)O)c(CNC3CSC3)c3ccccc32)cc1 [Example 2(71), 1-(4-Methylbenzyl)-3-[(3-thiethanylamino)methyl]-1H-indole-2-carboxylic acid]	60
O=C(O)c1c(CNC2CCCC2)c2ccccc2n1Cc1ccccc1Cl [Example 2(70), 1-(2-Chlorobenzyl)-3-[(cyclopentylamino)methyl]-1H-indole-2-carboxylic acid]	200
CCn1c(C(=O)O)c(CNC2CCC2)c2ccccc21 [Example 1(4), 3-[(Cyclobutylamino)methyl]-1-ethyl-1H-indole-2-carboxylic acid]	600
O=C(O)c1c(CNC2CC2)c2ccccc2n1Cc1ccccc1Cl [Example 2(72), 1-(2-Chlorobenzyl)-3-[(cyclopropylamino)methyl]-1H-indole-2-carboxylic acid]	100
O=C(O)c1c(CNC2CCC2)c2ccccc2n1Cc1ccccc1OC(F)F [Example 2(53), 3-[(Cyclobutylamino)methyl]-1-[2-(difluoromethoxy)benzyl]-1H-indole-2-carboxylic acid]	100
Cc1ccc(Cn2c(C(=O)NS(C)(=O)=O)c(CNC3CCC3)c3ccccc32)cc1 [Example 19, 3-[(Cyclobutylamino)methyl]-1-(4-methylbenzyl)-N-(methylsulfonyl)-1H-indole-2-carboxamide]	60
O=C(O)c1c(CNC2CCC2)c2ccccc2n1Cc1ccccc1Cl [Example 2(6), 1-(2-Chlorobenzyl)-3-[(cyclobutylamino)methyl]-1H-indole-2-carboxylic acid]	50
Cc1ccc(Cn2c(C(=O)O)c(CNC3CCC3)c3cccnc32)cc1 [Example 2(49), 3-[(Cyclobutylamino)methyl]-1-(4-methylbenzyl)-1H-pyrrolo[2,3-b]pyridine-2-carboxylic acid]	100
CSc1ccccc1Cn1c(C(=O)O)c(CNC2CCC2)c2ccccc21 [Example 2(75), 3-[(Cyclobutylamino)methyl]-1-[2-(methylthio)benzyl]-1H-indole-2-carboxylic acid]	60
Cc1ccc(Cn2c(C(=O)O)c(CNC3CCC3C)c3ccccc32)cc1 (centres unmarked) [Example 2(46)]	100
O=C(O)c1c(CNC2CCC2)c2ccccc2n1Cc1cccs1 [Example 2(74), 3-[(Cyclobutylamino)methyl]-1-(2-thienylmethyl)-1H-indole-2-carboxylic acid]	30
O=C(O)c1c(CNC2CCC2)c2ccccc2n1CC1CC1(F)F (centres unmarked) [Example 1(3), 3-[(Cyclobutylamino)methyl]-1-[(2,2-difluorocyclopropyl)methyl]-1H-indole-2-carboxylic acid]	200
Cc1ccc(Cn2c(C(=O)O)c(CNC3CCC3)c3cccc(C#N)c32)cc1 [Example 9(1), 7-Cyano-3-[(cyclobutylamino)methyl]-1-(4-methylbenzyl)-1H-indole-2-carboxylic acid]	200

From US20230014137A1, “COMPOUND HAVING LYSOPHOSPHATIDIC ACID RECEPTOR AGONIST ACTIVITY AND PHARMACEUTICAL USE THEREOF” (ONO PHARMACEUTICAL CO., LTD., priority 2019, published 2023)
